Test results reported in US20050049294A1, “Methods of using [3.2.0] heterocyclic compounds and analogs thereof” (priority 2003, published 2005).
“And” between values parts separate entries of the source, which are not always exact repeats. Identical values can stand only once. Like-named read-outs stand apart in the source and are kept apart here.

How the values were obtained:
[1] = tested on: HL-60 cells; assay: Cell growth inhibition (resazurin, 48 hours), HL-60
Source text: (§1) The DNA binding agent Mitoxantrone was included as a control, as HL-60/MX2 cells are reported to be resistant to this chemotherapeutic agent (Harker W. G. et al. 1989).

[2] = tested on: PC-3 cells; assay: Cell growth inhibition (resazurin, 48 hours), PC-3; assay type: cell-based, human
[3] = tested on: MES-SA/Dx5 cells; assay: cells; conditions: for Fold change: ratio of EC50 values (MES-SA/Dx5:MES-SA)
[4] = target: T1, trypsin-like activity of purified rabbit 20S proteasomes (Oryctolagus cuniculus, UniProt G1SWK8); assay: biochemical
T1 sequence (G1SWK8 1-271): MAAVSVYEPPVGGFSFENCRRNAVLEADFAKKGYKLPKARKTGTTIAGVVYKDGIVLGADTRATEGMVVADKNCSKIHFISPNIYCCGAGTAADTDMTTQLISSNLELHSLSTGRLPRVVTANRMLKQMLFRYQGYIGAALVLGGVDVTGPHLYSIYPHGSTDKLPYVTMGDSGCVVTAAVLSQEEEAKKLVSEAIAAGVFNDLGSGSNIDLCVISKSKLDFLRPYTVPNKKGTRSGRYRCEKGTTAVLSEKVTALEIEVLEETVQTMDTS

[5] = tested on: MES-SA cells; assay: Cell growth inhibition (resazurin, 48 hours), MES-SA
[6] = tested on: OVCAR-3 cells; assay: Cell growth inhibition (resazurin, 48 hours), OVCAR-3; assay type: cell-based, human
[7] = target: T2, chymotrypsin-like activity of rabbit muscle 20S proteasomes (Oryctolagus cuniculus, UniProt G1T4Q9); assay: Inhibition of chymotrypsin-like activity of purified rabbit muscle 20S proteasome (suc-LLVY-AMC); assay type: biochemical
T2 sequence (G1T4Q9 1-263): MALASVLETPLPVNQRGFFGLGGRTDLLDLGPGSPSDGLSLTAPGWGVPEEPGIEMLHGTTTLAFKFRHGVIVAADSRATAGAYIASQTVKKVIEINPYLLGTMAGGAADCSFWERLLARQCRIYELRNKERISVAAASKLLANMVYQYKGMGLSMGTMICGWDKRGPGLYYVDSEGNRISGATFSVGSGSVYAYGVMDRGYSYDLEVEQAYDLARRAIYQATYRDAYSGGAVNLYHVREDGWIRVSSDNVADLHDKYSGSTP
Method: This peptide substrate is specific for the chymotrypsin-like enzyme activity of the proteasome.
Omuralide was prepared as a 10 mM stock in DMSO and stored in 5 μL aliquots at −80° C. […] The assay measures the hydrolysis of Suc-LLVY-AMC into Suc-LLVY and AMC. The released coumarin (AMC) was measured fluorometrically by using λex=390 nm and λem=460 nm. The assays were performed in a microtiter plate (Corning 3904), and followed kinetically with measurements every five minutes. The instrument used was a Thermo Lab Systems Fluoroskan, with the incubation chamber set to 37° C. The assays were performed according to the manufacturer's protocol, with the following changes. The proteasome was activated as described with SDS, and held on ice prior to the assay. […] Ten microliters of each dose were added in triplicate to the assay plate, and 190 μL of the activated proteasome was added and mixed. The samples were pre-incubated in the Fluoroskan for 5 minutes at 37° C. Substrate was added and the kinetics of AMC were followed for one hour.

[8] = tested on: LeTx-induced cytotoxicity of RAW264.7 cells; assay: cells; conditions: Mus musculus
[9] = tested on: U266 cells; assay: Cell growth inhibition (resazurin, 48 hours), U266
[10] = tested on: NCI-H292 cells; assay: Cell growth inhibition (resazurin, 48 hours), NCI-H292; assay type: cell-based, human
[11] = tested on: HL-60/MX2 cells; assay: cells; conditions: for Fold change: ratio of EC50 values (HL-60/MX2:HL-60)
Source text: as §1

[12] = Homo sapiens, HL-60, read-out: EC50 (nM) HL-60, Table 17
[13] = read-out: EC50 (nM) HL-60, Table 17
[14] = Homo sapiens, MES-SA, read-out: EC50 (nM) MES-SA, Table 16
[15] = read-out: EC50 (nM) MES-SA, Table 16
[16] = Homo sapiens, OVCAR-3, Table 13, OVCAR-3
[17] = Table 3, mean EC50, purified rabbit 20S proteasomes, read-out: EC50 Values, Chymotrypsin-like
[18] = RAW264.7, read-out: EC50 (nM), inhibition of RAW 264.7 cell cytotoxicity mediated by anthrax lethal toxin
[19] = Homo sapiens, U-266, Table 13, U266
[20] = Homo sapiens, U-266, read-out: U266 EC50 (nM), Table 15, mean EC50
[21] = Homo sapiens, NCI-H292, Table 13, NCI-H292
[22] = Homo sapiens, HL60/MX2, read-out: EC50 (nM) HL-60/MX2, Table 17
[23] = read-out: EC50 (nM) HL-60/MX2, Table 17
[24] = Homo sapiens, MES-SA/Dx5, read-out: EC50 (nM) MES-SA/Dx5, Table 16
[25] = read-out: EC50 (nM) MES-SA/Dx5, Table 16

Question: Which EC50 [1, 12] does the source give for `C[C@@]12OC(=O)[C@]1([C@@H](O)[C@@H]1C=CCCC1)NC(=O)[C@@H]2CCBr` [Formula II-18] here?
Answer: The EC50 was 27 nM.

Question: What about the EC50 [1, 13] of the same molecule?
Answer: Its EC50 is 23 nM.

Question: What about the EC50 ([2]; Homo sapiens, PC-3) of the same molecule?
Answer: Its EC50 is 35 ± 5.6 nM.

Question: What about the Fold change ([3]; Table 16) of the same molecule?
Answer: Its Fold change is 1.2 fold.

Question: What about the EC50 [4] of the same molecule?
Answer: Its EC50 is 14 nM.

Question: What about the EC50 [5, 14] of the same molecule?
Answer: The EC50 was 22 nM.

Question: What about the EC50 [5, 15] of the same molecule?
Answer: The EC50 was 17 nM.

Question: And the EC50 [6, 16]?
Answer: The EC50 was over 2000 nM.

Question: What about the EC50 [7, 17] of the same molecule?
Answer: Its EC50 is 2.2 nM.

Question: What about the EC50 [8, 18] of the same molecule?
Answer: Its EC50 is 4 nM.

Question: And the EC50 [9, 19]?
Answer: Its EC50 is 4.2 nM.

Question: What about the EC50 [9, 20] of the same molecule?
Answer: The EC50 was 4.2 nM.

Question: What about the EC50 [10, 21] of the same molecule?
Answer: Its EC50 is 29 nM.

Question: What about the EC50 ([10]; Table 13, NCI-H292) of the same molecule?
Answer: The EC50 was 41 nM.

Question: And the EC50 [11, 22]?
Answer: The EC50 was 19 nM.

Question: And the Fold change ([11]; Table 17)?
Answer: Its Fold change is 0.7 fold.

Question: And the EC50 [11, 23]?
Answer: The EC50 was 18 nM.

Question: Which EC50 [1, 12] does the source give for `C[C@@]12OC(=O)[C@]1([C@@H](O)C1CCCCC1)NC(=O)[C@@H]2CCBr` [Formula II-4] here?
Answer: The EC50 was 111 nM.

Question: What about the EC50 ([2]; Homo sapiens, PC-3) of the same molecule?
Answer: Its EC50 is 204 ± 49 nM.

Question: And the EC50 [3, 24]?
Answer: The EC50 was 178 nM.

Question: And the Fold change ([3]; Table 16)?
Answer: Its Fold change is 0.9 fold.

Question: And the EC50 [3, 25]?
Answer: Its EC50 is 93 nM.

Question: And the EC50 [4]?
Answer: The EC50 was 109 nM.

Question: What about the EC50 [5, 14] of the same molecule?
Answer: Its EC50 is 163 nM.

Question: And the EC50 [6, 16]?
Answer: The EC50 was over 6320 nM.

Question: What about the EC50 [7, 17] of the same molecule?
Answer: The EC50 was 14.2 nM.

Question: And the EC50 ([7]; representative experiment, Example 44 (FIG. 46, 47), read-out: EC50, chymotrypsin-like activity of the proteasome)?
Answer: Its EC50 is 15 nM.

Question: And the EC50 [8, 18]?
Answer: Its EC50 is 14 nM.

Question: What about the EC50 [9, 19] of the same molecule?
Answer: Its EC50 is 39 nM.

Question: What about the EC50 [9, 20] of the same molecule?
Answer: The EC50 was 36 nM.

Question: And the EC50 ([9]; Table 13, U266)?
Answer: Its EC50 is 34 nM.

Question: And the EC50 [10, 21]?
Answer: Its EC50 is 192 nM.

Question: What about the EC50 [11, 22] of the same molecule?
Answer: The EC50 was 103 nM.

Question: And the Fold change ([11]; Table 17)?
Answer: The Fold change was 0.8 fold.

Question: And the EC50 [11, 23]?
Answer: The EC50 was 97 nM.

Question: `C[C@@]12OC(=O)[C@]1([C@@H](O)[C@@H]1C=CCCC1)NC(=O)[C@@H]2CCCl` [Formula II-16, Salinosporamide A] was tested. Which EC50 ([1]; Homo sapiens, HL-60, Table 8, HL-60) did it give?
Answer: The EC50 was 27 nM.

Question: And the “% cytotoxicity” value ([1]; Table 8, HL-60)?
Answer: The value was 88% and 91%.

Question: What about the EC50 ([1]; Table 8, HL-60) of the same molecule?
Answer: The EC50 was 30 nM.

Question: And the EC50 ([2]; Homo sapiens, PC-3, 48 h, PC3, 48h, panel of b226)?
Answer: The EC50 was 78 nM.

Question: What about the EC50 ([2]; Homo sapiens, PC-3, 48 h, read-out: EC50 (nM), mean ± SD, Table 2, PC-3, human prostate adenocarcinoma, 48 hours) of the same molecule?
Answer: The EC50 was 64 ± 26 nM.

Question: What about the EC50 ([2]; Homo sapiens, PC-3, Table 6, PC-3 (n = 2)) of the same molecule?
Answer: Its EC50 is 31 nM.

Question: What about the “% cytotoxicity” value ([2]; Table 6, PC-3 (n = 2)) of the same molecule?
Answer: Its value is 88% and 89%.

Question: What about the EC50 ([2]; Table 6, PC-3 (n = 2)) of the same molecule?
Answer: Its EC50 is 25 nM.

Question: And the EC50 ([3]; Homo sapiens, MES-SA/Dx5, read-out: EC50 (nM), mean ± SD)?
Answer: The EC50 was 23 ± 1 nM.

Question: What about the “% cytotoxicity, mean ± SD” value ([3]; Table 7, MES-SA/Dx5) of the same molecule?
Answer: Its value is 92 ± 2%.

Question: And the EC50 ([5]; Homo sapiens, MES-SA, read-out: EC50 (nM), mean)?
Answer: The EC50 was 20 ± 5 nM.

Question: And the “% cytotoxicity, mean ± SD” value ([5]; Table 7, MES-SA)?
Answer: Its value is 94 ± 1%.

Question: What about the EC50 ([6]; Homo sapiens, OVCAR-3, 48 h) of the same molecule?
Answer: The EC50 was 69 nM.

Question: What about the EC50 ([6]; Homo sapiens, OVCAR-3, 48 h, read-out: EC50 (nM), mean ± SD) of the same molecule?
Answer: The EC50 was 49 ± 31 nM.

Question: What about the “more potent than Omuralide” value ([7]; 20S proteasome assay EC50 values) of the same molecule?
Answer: The value was “approximately 40 fold”.

Question: What about the EC50 ([8]; RAW264.7, read-out: average EC50, viability of LeTx-treated cells) of the same molecule?
Answer: Its EC50 is under 4 nM.

Question: And the EC50 ([9]; Homo sapiens, U-266, 48 h, read-out: EC50 (nM), mean ± SD)?
Answer: The EC50 was 4.7 ± 0.7 nM.

Question: And the EC50 ([9]; Homo sapiens, U-266, read-out: U266 EC50 (nM))?
Answer: Its EC50 is 4.1 nM.

Question: And the EC50 ([10]; Homo sapiens, NCI-H292, 48 h)?
Answer: Its EC50 is 97 nM.

Question: And the EC50 ([10]; Homo sapiens, NCI-H292, 48 h, read-out: EC50 (nM), mean ± SD)?
Answer: Its EC50 is 66 ± 29 nM.

Question: And the EC50 ([11]; Homo sapiens, HL60/MX2, Table 8, HL-60/MX2)?
Answer: The EC50 was 28 nM.

Question: And the “% cytotoxicity” value ([11]; Table 8, HL-60/MX2)?
Answer: The value was 84% and 89%.

Question: And the EC50 ([11]; Table 8, HL-60/MX2)?
Answer: The EC50 was 25 nM.

Question: Which results are given for `C[C@@]12OC(=O)[C@]1([C@@H](O)C1CCCCC1)NC(=O)[C@@H]2CCCl` [Formula II-2]?
Answer: EC50 [1, 12]: 237 nM; EC50 [1, 13]: 176 nM; EC50 ([2]; Homo sapiens, Table 13, PC-3, read-out: EC50): 284 ± 110 nM; EC50 [3, 24]: 220 nM; Fold change ([3]; Table 16): 1.0 fold; EC50 [3, 25]: 138 nM; EC50 [4]: 230 nM; EC50 [5, 14]: 193 nM; EC50 [5, 15]: 155 nM; EC50 [6, 16]: 188 nM; EC50 ([6]; Table 13, OVCAR-3): 251 nM; EC50 ([7]; EC50, chymotrypsin-like activity of the proteasome): 18.5 nM; EC50 ([7]; EC50 Values, Chymotrypsin-like): 18 nM; EC50 [8, 18]: 14 nM; EC50 [9, 19]: 32 nM; EC50 [9, 20]: 36 nM; EC50 [10, 21]: 322 nM; EC50 [11, 22]: 142 nM; Fold change ([11]; Table 17): 0.7 fold; EC50 [11, 23]: 133 nM
